Entries after “also recorded” stand apart in the source; their conditions may differ.
Columns and labels:
Type in all cases: biochemical, Bacillus sectorramus
α-1,6-glucosidase [1] = assay: Influence of metal salt on enzyme activity; settings: for Remaining activity (%): 50 mM acetic acid buffer (pH 4.5), 30 minutes at 40° C., final concentration of metal salt 5 mM; for Influence of metal salts: metal salt 5 mM
Procedure: (§1) 8. Assay of activity: 4 ml of 0.5% pullulan solution (pH 4.5) was added to 1 ml of an enzyme solution, and the reaction was carried out for 30 minutes at 40° C. Then, 2 ml of Somogyi solution was added, the mixture was heated for 20 minutes and then cooled. After cooling, 1 ml of ammonium arsenomolybdenate was added, and water was added to a total volume of 25 ml. Absorbance of this solution was measured at 500 nm, with a layer thickness of 1 cm. Under these conditions, the activity was defined as one unit when reducing sugar corresponding to 1 μmol of glucose was produced per minute.
10. […] Influences of various metal salts are shown in Table 5, indicating the remaining activity after treatment in a 50 mM acetic acid buffer (pH 4.5) for 30 minutes at 40° C., with a final concentration of metal salt of 5 mM.

α-1,6-glucosidase [2] = assay: Influence of inhibitor on enzyme activity
Procedure: as §1

α-1,6-glucosidase [3] = assay: Relative activity to polysaccharides (substrate specificity); settings: activity of the enzyme on the polysaccharide, pullulan = 100
Procedure: 3. Relative activity to polysaccharides: Table 3 compares the relative activity of the enzyme on pullulan to relative activity on soluble maize amylopectin, soluble starch, oyster glycogen, hare glycogen, maize amylopectin, and potato amylopectin.
as §1

α-1,6-glucosidase [4] = assay: Km value and Vmax to substrates; settings: substrate of the purified enzyme
From the text: After the cultivation period, the cells were removed from the culture broth, and the supernatant fraction thus obtained was concentrated to obtain a preparation of crude pullulanase. This preparation was fractionated with ammonium sulfate, then subjected to affinity chromatography with γ-cyclodextrin-cephalose 6B (produced by coupling γ-cyclodextrin to activated Sepharose 6B (trade mark, Pharmacia Fine Chemical Co.)) and purified to a single band by electrophoresis utilizing SDS-polyacrylamide gel. The following explains the enzymochemical properties of the α-1,6-glucosidase thus purified.
2. Km value and Vmax to substrates: The Km value (mg/ml) and Vmax value (μmol/min/mg protein) of the enzyme to pullulan, potato amylopectin, and corn amylopectin are as shown in Table 2:
as §1

[5] = 50 mM acetic acid buffer (pH 4.5), 30 minutes at 40° C., final concentration of inhibitor 1 mM

Cl.Cl.[Ag] [AgCl2]
Remaining activity (%) (α-1,6-glucosidase [1]): 2.7%
Influence of metal salts (α-1,6-glucosidase [1]; listed as Ag^2+): deactivated; also recorded: losses activity

[Ba+2].[Cl-].[Cl-] [BaCl2]
Remaining activity (%) (α-1,6-glucosidase [1]): 98.9%
Influence of metal salts (α-1,6-glucosidase [1]): negligibly affected

[Ca+2].[Cl-].[Cl-] [CaCl2]
Remaining activity (%) (α-1,6-glucosidase [1]): 79.1%

O.O.O.O.O.[Cd+2].[Cd+2].[Cl-].[Cl-].[Cl-].[Cl-] [CdCl2.21/2H2 O]
Remaining activity (%) (α-1,6-glucosidase [1]): 92.4%
Influence of metal salts (α-1,6-glucosidase [1]): negligibly affected

[Cl-].[Cl-].[Co+2] [CoCl2]
Remaining activity (%) (α-1,6-glucosidase [1]): 87.7%

O.O.[Cl][Cu][Cl] [CuCl2.2H2 O]
Remaining activity (%) (α-1,6-glucosidase [1]): 73.4%

O=C(O)CN(CCN(CC(=O)O)CC(=O)O)CC(=O)O [EDTA]
Remaining activity (%) (α-1,6-glucosidase [2]; pH 4.5): 93.1%

[Cl][Fe][Cl] [FeCl2.nH2 O]
Remaining activity (%) (α-1,6-glucosidase [1]): 82.1%

[Cl][Fe]([Cl])[Cl] [FeCl3]
Remaining activity (%) (α-1,6-glucosidase [1]): 57.8%
Influence of metal salts (α-1,6-glucosidase [1]): inhibited

[Cl][Hg][Cl] [HgCl2]
Remaining activity (%) (α-1,6-glucosidase [1]): 0%
Influence of metal salts (α-1,6-glucosidase [1]; listed as Hg^2+): deactivated; also recorded: losses activity

O.O.O.O.O.O.[Cl-].[Cl-].[Mg+2] [MgCl2.6H2 O]
Remaining activity (%) (α-1,6-glucosidase [1]): 91.3%

O.O.O.O.[Cl][Mn][Cl] [MnCl2.4H2 O]
Remaining activity (%) (α-1,6-glucosidase [1]): 85.9%
Influence of metal salts (α-1,6-glucosidase [1]): negligibly affected

O=C(O)CI [Monoiodo-acetic acid]
Remaining activity (%) (α-1,6-glucosidase [2]; pH 4.5): 66.5%

CCN1C(=O)C=CC1=O [N--ethylmaleimide]
Remaining activity (%) (α-1,6-glucosidase [2]; [5]): 65.5%

O.O.O.O.O.O.[Cl][Ni][Cl] [NiCl2.6H2 O]
Remaining activity (%) (α-1,6-glucosidase [1]): 102.7%
Influence of metal salts (α-1,6-glucosidase [1]): negligibly affected

O=C(O)c1cc[c]([Hg][Cl])cc1 [PCMB, p-chloromercuribenzoic acid]
Remaining activity (%) (α-1,6-glucosidase [2]; [5]): 27.1%

CCCCCCCCCCCCOS(=O)(=O)[O-].[Na+] [SDS, sodium dodecylsulfate]
Remaining activity (%) (α-1,6-glucosidase [2]; [5]): 1.5%

O.O.[Cl][Sn][Cl] [SnCl2.2H2 O]
Remaining activity (%) (α-1,6-glucosidase [1]): 82.1%

[Cl-].[Cl-].[Sr+2] [SrCl2]
Remaining activity (%) (α-1,6-glucosidase [1]): 74.5%

[Cl-].[Cl-].[Zn+2] [ZnCl2]
Remaining activity (%) (α-1,6-glucosidase [1]): 97.3%
Influence of metal salts (α-1,6-glucosidase [1]): negligibly affected

c1cnc2c(c1)ccc1cccnc12 [o-phenanthroline]
Remaining activity (%) (α-1,6-glucosidase [2]; [5]): 109.0%
Influence of inhibitor (α-1,6-glucosidase [2]; inhibitor 1 mM): not and not inhibited

Pullulan
Relative activity (%) (α-1,6-glucosidase [3]): 100%
Km (α-1,6-glucosidase [4]): 0.14 mg/mL
Vmax (α-1,6-glucosidase [4]): 70.0 μmol/min/mg protein

Soluble starch
Relative activity (%) (α-1,6-glucosidase [3]): 6.7%

Source: patent US4902622A, “Novel α-1,6-glucosidase and process for producing the same” (Amano Pharmaceutical Co., Ltd., priority 1986, dated 1990)
